# Laboratory results: paper PMC9387934, “Randomized single oral dose phase 1 study of safety, tolerability, and pharmacokinetics of Iminosugar UV-4 Hydrochloride (UV-4B) in healthy subjects” (PLoS Neglected Tropical Diseases, 2022)
# Like-named read-outs stand apart in the source and are kept apart here.
# Assay: Phase 1a single ascending dose study: UV-4 plasma concentrations and PK parameters (LC-MS/MS, noncompartmental)
# Assay type: in vivo
# Settings: for Tmax / half-life / AUC(0-inf) / Cmax: both sexes, human, plasma; for AUC(0-inf): read-out: AUC(0-inf); for Cmax: read-out: Cmax
# Method: UV-4 ((2R,3R,4R,5S)-2-(hydroxymethyl)-1-(9-methoxynonyl)piperidine-3,4,5-triol, also called N-(9’-methoxynonyl)-1-deoxynojirimycin, or MON-DNJ) hydrochloride was evaluated in a first-in-human, randomized, single-center, double-blind, placebo-controlled, parallel group, single ascending dose Phase 1a clinical trial in healthy subjects (Figs 1 and 2, ClinicalTrials.gov Identifier NCT02061358 https://clinicaltrials.gov/ct2/show/NCT02061358). The primary objective was to determine the safety and tolerability of a single-ascending oral dose of UV-4 hydrochloride (Fig 3). […] The secondary objective was to determine PK parameters describing absorption and elimination of UV-4 following a single oral dose of UV-4 hydrochloride. Eight cohorts of eight subjects each were enrolled and completed the study. In each cohort, six subjects received UV-4 as the hydrochloride; two received placebo. Subjects were screened against study eligibility criteria up to four weeks (Days -28 to -2) before admission to the clinic (Day -1). Dosing was performed on an inpatient basis. Subjects remained in clinic for 48 hours post-dosing for PK sample collection and safety assessments and were discharged from the clinic on Day 3. Subjects returned to the clinic on Day 4 for additional safety assessments, then again on Day 9 ± 1 for a final follow-up visit.
# Eligible subjects were healthy males and females, age 18–45 years, with a body mass index between 18 and 30 kg/m^2 inclusive and a minimum body weight of 60 kg. Subjects were considered healthy based on medical history, physical exam, vital signs, 12-lead electrocardiogram (ECG), clinical laboratory tests (hematology, blood chemistry, urinalysis), viral serology, and drug and alcohol screening. Male and female subjects of childbearing potential were required to use adequate contraception over the course of the clinical trial. […] Only subjects who met all inclusion and none of the exclusion criteria prior to administration of the investigational product were enrolled into the study (no exemptions were granted). A total of 64 subjects were enrolled (eight cohorts of eight subjects each). In each of the eight cohorts, six subjects were randomized to receive a single dose of UV-4 (3 to 1000 mg, depending on cohort) as the hydrochloride salt, and two subjects to receive placebo. Cohort size of six active subjects was based on analysis that increasing cohort size above six in a first-in-human study gains little in the ability to observe a drug induced event, and results in observing more events that are not related to study drug. Two of the eight subjects in each cohort (sentinel subjects; one active and one placebo) received their doses at least 48 h before the remaining subjects in each cohort.
# On each day of use, bulk drug substance (UV-4B for solubilization, SAI Life Sciences Ltd. Telangana, India) was removed from a single-use container, weighed at the study center, and solubilized in 20 mL sterile water for injection (SWFI) (Hospira Inc. Illinois, United States of America). Weight of solid drug substance was converted to dose of UV-4 by applying purity and salt correction factor per pharmacy manual when preparing the dosing solution. UV-4B solution was administered orally with 10 mL of taste-masking agent, OraSweet-SF (Paddock Laboratories LLC, Minneapolis, United States of America) in a total volume of 30 mL, to assist in maintaining study blinding. Placebo was SWFI (20 mL) plus OraSweet-SF (10 mL). Concentrations and doses were calculated and expressed as the active free base form, UV-4. This methodology is consistent with USP<1121>, which recommends that the strength of a drug product or preparation is expressed in terms of the active moiety. Following consumption of active or placebo solution, the dosing container was rinsed with 50 mL of tap water also consumed by subjects. […]
# [1] = po, 3 mg, 3 mg single oral dose, Ar Mean
compound,measurement,setting,value
"COCCCCCCCCCN1C[C@H](O)[C@@H](O)[C@H](O)[C@H]1CO [UV-4, N-(9’-methoxynonyl)-1-deoxynojirimycin]",Time over which UV-4 plasma concentrations were quantifiable,"3 mg, 5 of 6 subjects",24 h
same,Time over which UV-4 plasma concentrations were quantifiable,"3 mg, one subject",36 h
same,Tmax,"oral, 3 to 1000 mg UV-4 dose range, read-out: Median time to reach maximum plasma concentration (tmax), range across dose groups",0.5 to 1 h
same,half-life,"oral, Phase 1a study, 3 to 1000 mg, read-out: Mean half-life, range across dose groups",8.14 to 12 h
same,AUC(0-inf),[1],95.6 ng·h/mL
same,Cmax,[1],22.4 ng/mL
same,half-life,"po, 3 mg, 3 mg single oral dose, Ar Mean, read-out: t1/2 (converted)",10.7 h
same,AUC(0-inf),"po, 3 mg, 3 mg single oral dose, Arithmetic Mean",95.6 ng·h/mL
same,Cmax,"po, 3 mg, 3 mg single oral dose, Geo Mean",22.1 ng/mL
same,half-life,"po, 3 mg, 3 mg single oral dose, Geo Mean, read-out: t1/2 (converted)",10.3 h
same,AUC(0-inf),"po, 3 mg, 3 mg single oral dose, Geometric Mean",94.6 ng·h/mL
same,Tmax,"po, 3 mg, 3 mg single oral dose, median, read-out: tmax",0.5 h
same,Cmax,"po, 10 mg, 10 mg single oral dose, Ar Mean",84.6 ng/mL
same,half-life,"po, 10 mg, 10 mg single oral dose, Ar Mean, read-out: t1/2 (converted)",12 h
same,AUC(0-inf),"po, 10 mg, 10 mg single oral dose, Arithmetic Mean",431 ng·h/mL
same,Cmax,"po, 10 mg, 10 mg single oral dose, Geo Mean",82.6 ng/mL
same,half-life,"po, 10 mg, 10 mg single oral dose, Geo Mean, read-out: t1/2 (converted)",11.9 h
same,AUC(0-inf),"po, 10 mg, 10 mg single oral dose, Geometric Mean",420 ng·h/mL
same,Tmax,"po, 10 mg, 10 mg single oral dose, median, read-out: tmax",1 h
same,Cmax,"po, 30 mg, 30 mg single oral dose, Ar Mean",292 ng/mL
same,half-life,"po, 30 mg, 30 mg single oral dose, Ar Mean, read-out: t1/2 (converted)",10 h
same,AUC(0-inf),"po, 30 mg, 30 mg single oral dose, Arithmetic Mean",1260 ng·h/mL
same,Cmax,"po, 30 mg, 30 mg single oral dose, Geo Mean",289 ng/mL
same,half-life,"po, 30 mg, 30 mg single oral dose, Geo Mean, read-out: t1/2 (converted)",10 h
same,AUC(0-inf),"po, 30 mg, 30 mg single oral dose, Geometric Mean",1260 ng·h/mL
same,Tmax,"po, 30 mg, 30 mg single oral dose, median, read-out: tmax",0.5 h
same,Cmax,"po, 90 mg, 90 mg single oral dose, Ar Mean",946 ng/mL
same,half-life,"po, 90 mg, 90 mg single oral dose, Ar Mean, read-out: t1/2 (converted)",10.4 h
same,AUC(0-inf),"po, 90 mg, 90 mg single oral dose, Arithmetic Mean",3730 ng·h/mL
same,Cmax,"po, 90 mg, 90 mg single oral dose, Geo Mean",900 ng/mL
same,half-life,"po, 90 mg, 90 mg single oral dose, Geo Mean, read-out: t1/2 (converted)",10.2 h
same,AUC(0-inf),"po, 90 mg, 90 mg single oral dose, Geometric Mean",3700 ng·h/mL
same,Tmax,"po, 90 mg, 90 mg single oral dose, median, read-out: tmax",0.5 h
same,Cmax,"po, 180 mg, 180 mg single oral dose, Ar Mean",2150 ng/mL
same,half-life,"po, 180 mg, 180 mg single oral dose, Ar Mean, read-out: t1/2 (converted)",8.7 h
same,AUC(0-inf),"po, 180 mg, 180 mg single oral dose, Arithmetic Mean",7110 ng·h/mL
same,Cmax,"po, 180 mg, 180 mg single oral dose, Geo Mean",2060 ng/mL
same,half-life,"po, 180 mg, 180 mg single oral dose, Geo Mean, read-out: t1/2 (converted)",8.7 h
same,AUC(0-inf),"po, 180 mg, 180 mg single oral dose, Geometric Mean",7090 ng·h/mL
same,Tmax,"po, 180 mg, 180 mg single oral dose, median, read-out: tmax",0.8 h
same,Cmax,"po, 360 mg, 360 mg single oral dose, Ar Mean",4570 ng/mL
same,half-life,"po, 360 mg, 360 mg single oral dose, Ar Mean, read-out: t1/2 (converted)",8.1 h
same,AUC(0-inf),"po, 360 mg, 360 mg single oral dose, Arithmetic Mean",13800 ng·h/mL
same,Cmax,"po, 360 mg, 360 mg single oral dose, Geo Mean",4490 ng/mL
same,half-life,"po, 360 mg, 360 mg single oral dose, Geo Mean, read-out: t1/2 (converted)",8.1 h
same,AUC(0-inf),"po, 360 mg, 360 mg single oral dose, Geometric Mean",13700 ng·h/mL
same,Tmax,"po, 360 mg, 360 mg single oral dose, median, read-out: tmax",0.5 h
same,Cmax,"po, 720 mg, 720 mg single oral dose, Ar Mean",9920 ng/mL
same,half-life,"po, 720 mg, 720 mg single oral dose, Ar Mean, read-out: t1/2 (converted)",8.2 h
same,AUC(0-inf),"po, 720 mg, 720 mg single oral dose, Arithmetic Mean",32900 ng·h/mL
same,Cmax,"po, 720 mg, 720 mg single oral dose, Geo Mean",9760 ng/mL
same,half-life,"po, 720 mg, 720 mg single oral dose, Geo Mean, read-out: t1/2 (converted)",8.2 h
same,AUC(0-inf),"po, 720 mg, 720 mg single oral dose, Geometric Mean",32800 ng·h/mL
same,Tmax,"po, 720 mg, 720 mg single oral dose, median, read-out: tmax",0.8 h
same,Cmax,"po, 1000 mg, 1000 mg single oral dose, Ar Mean",13100 ng/mL
same,half-life,"po, 1000 mg, 1000 mg single oral dose, Ar Mean, read-out: t1/2 (converted)",8.8 h
same,AUC(0-inf),"po, 1000 mg, 1000 mg single oral dose, Arithmetic Mean",43100 ng·h/mL
same,Cmax,"po, 1000 mg, 1000 mg single oral dose, Geo Mean",13000 ng/mL
same,half-life,"po, 1000 mg, 1000 mg single oral dose, Geo Mean, read-out: t1/2 (converted)",8.6 h
same,AUC(0-inf),"po, 1000 mg, 1000 mg single oral dose, Geometric Mean",42800 ng·h/mL
same,Tmax,"po, 1000 mg, 1000 mg single oral dose, median, read-out: tmax",1 h
same,Time over which UV-4 plasma concentrations were quantifiable,"doses of 10 mg or higher, entire collection interval",48 h
